Test results reported in article PMC9109478 (2022).

Assays:
[1] = test system: hRAS1 (DNA, G4) TCGGGTTGCGGGCGCAGGGCACGGGCG; assay: ESI-MS; settings: K+ 1 mM; 100 mM TMAA, 50% methanol; 20 μM strand
[2] = test system: ODN-51 (DNA, G4) TAGGGTTAGGGTTAGGGTTAGGG; assay: ESI-MS; settings: K+ 1 mM; 100 mM TMAA, 50% methanol; 20 μM strand
[3] = test system: NRAS (RNA, G4) UGUGGGAGGGGCGGGUCUGGG; assay: CD melting; settings: K+ 100 mM; 10 mM Tris, pH 7.4; NRAS 5 μM; TPE-B : G4 1:1
[4] = test system: hRAS1 (DNA, G4) TCGGGTTGCGGGCGCAGGGCACGGGCG; assay: CD melting; settings: K+ 100 mM; 10 mM Tris, pH 7.4; G4 15 μM; TPE-B : G4 1:1

binding [1]: weak | binding [2]: weak | ΔTm [3]: 13.51 °C | ΔTm [4]: 0.07 °C
SMILES: CN(C)c1cc[n+](CCCCOc2ccc(C(=C(c3ccc(OCCCC[n+]4ccc(N(C)C)cc4)cc3)c3ccc(OCCCC[n+]4ccc(N(C)C)cc4)cc3)c3ccc(OCCCC[n+]4ccc(N(C)C)cc4)cc3)cc2)cc1
